Results published in patent publication US12415939B2, “Nano-adhesive and surface primer compound and use thereof” (The Regents of the University of California, priority 2015, dated 2025).

Legend:
[1] = AFM force between Z-Cat-Ben SAM on silica and a silica bead; type: physicochemical; conditions: SAM on silica from 5 mM
Source text: The pristine self-assemble of the Z-Cat-Ben molecules on silica surface exposed the aromatic residues to the air-water interface resulting in a low interfacial energy between a silica bead and the SAM surface as measured with the AFM technique (Wad˜0.07 mJ/m^2, see FIG. 47). This is unlike the strong adhesion of SAMs exposing catechol residues to the air water interface that bind to silica surface through hydrogen bonding interactions (Wad˜7.7 mJ/m^2).

[2] = Standard three point bending peel test; conditions: ambient dry, n=4
Method: Samples were prepared as described above in “Lap Joint Bending Peel Test” underwater, i.e., aqueous periodate solution, then dried 12 h and 24 h, respectively, in ambient condition. In this standard three point bending peel test, the cross section area was 2.54 cm×1.27 cm.
The standard three point bending peel test (FIG. 24F) was conducted with a Bionix 200 tensile tester (MTS Systems) in ambient conditions. All tests were conducted with a test speed of 5 mm min-1.

[3] = Critical aggregation concentration by Wilhelmy plate tensiometry; type: physicochemical; conditions: DI water
Method: (§1) Aqueous colloidal dispersions of each homolog were prepared in deoxygenated deionized (DI) water. The critical aggregation concentration (CAC) was determined from the solution surface tension of varying homolog concentrations in deionized (DI) water (e.g., see the red line of Z-Cat-C10 in FIG. 2B) by Wilhelmy plate tensiometry and has been described elsewhere. Use of the CAC instead of CMC here is a hedge to accommodate the uncertainty about whether micelles or other soluble aggregates were forming.
as §1, with “the” for “the red”

[4] = Lap joint bending peel test
Method: Below are the detailed methods following in sequential order in time: • 1) The aqueous Z-Cat-C10 solution was prepared at 100 mg ml^−1 concentration (very turbid solution at room temperature) (FIG. 10A test-tube on the left). • 2) The solution was centrifuged at 3000 rpm (805×g) for 5 min to expedite the process of liquid-liquid phase separation (FIG. 10A test-tubes in the middle and the right). 3) The lower dense coacervate phase was collected in a syringe (FIG. 24A) and injected (spread, ˜10 μl) over a steel plate immersed in water i.e., artificial sea water, aqueous periodate solution, and DI water, respectively (FIG. 24B). • 4) Another steel plate glued onto the steel plate with coacervates on as a lap joint (cross-sectional area 2.54 cm×2.54 cm. • 5) The each lap joint was loaded (250 g) for 12 h of compressive setting (FIG. 24C). • 6) The lap joint bending peel test was conducted underwater for each lap joint prepared in artificial seawater, aqueous periodate solution, and DI water, respectively (FIGS. 24D-24F). • 7) The lap joint bending peel test was conducted dry ambient condition for the lap joint prepared in the periodate solution after 12 h drying in ambient condition Standard Three Point Bending Peel Test
The catecholic zwitterions were inspired by interfacial proteins (mfp-3 and -5) that function as adhesive primers, but not as bulk adhesives. To determine whether Z-Cat-C10 is limited to surface binding or develops measurable bulk cohesion (thickness […]), bulk rupture tests were done using a peeling-by-bending test to better mimic the role that interfacial proteins play in resisting plaque detachment as well as lap-shear bonding test. Lap joints were prepared by gluing two steel plates (SS304) immersed in water using the lower dense coacervate (˜10 μl) (FIGS. 24A-24H). The lap joint (cross-sectional area=2.54 cm×2.54 cm) prepared in artificial seawater or periodate solution, respectively, held a load up to 3 N underwater. […] After 12 h ambient drying, the joint prepared in 1 M periodate solution held much higher load, 11 N: Standard three point bending peel strength of the lap joint (cross-sectional area=2.54 cm×1.27 cm) was measured under ambient dry conditions after drying 12 h. […] Shear bonding strength of the lap joint (cross-sectional area=2.54 cm×2.54 cm) was also measured, 1.1 MPa (standard deviation=0.3, n=4)—similar to Dopa-functionalized polypeptide prepared under ambient dry conditions, 0.9 MPa. […] Nevertheless, the results present that the zwitterionic surfactants were capable of micro-gap-filling as well as nano-gap-filling shown in AFM and SFA, and indicate that they are more versatile than surface primers. The results also attest to the self-assembling ability of Z-Cat-C10 (FIGS. 13A-13C, double bilayer structure).

[5] = AFM adhesion force runs with silica probe on Z-Cat-C10 coated copper plate; type: physicochemical; conditions: CuO2/Cu(OH)2 and SiO2 surfaces
Method: AFM force runs were measured with and without Z-Cat-C10 on silicon wafer and copper plate, respectively, vs. silicon dioxide probe. Underwater force run was conducted for the surface prepared subsequently after spreading the 5 mM Z-Cat-C10, waiting for 2 min, rinsing thoroughly with degassed DI water thoroughly for 3 times. Dry force run was performed after ˜5 min dry of the surface prepared as for the underwater force run. […] Cantilever spring constant (K) for #=10 μm silica tip on silicon wafer and copper plate with Z-Cat-C10, was 0.1 N m^−1.
The measured adhesion, Fa, force (minimum of the potential well of the F vs. D curves obtained from AFM measurements) is related to the adhesion energy per unit area by Wa=Fa/2πR for rigid surfaces with weak adhesive interactions, and by Wa=Fa/1.5πR (used in this study) for soft deformable surfaces with strong adhesion or cohesion. […]
The adhesion/cohesion energy of the synthetic zwitterionic molecules was investigated in SFA (SurForce LLC, Santa Barbara, CA). […] The adhesion forces between Z-Cat-C10 molecules on various surfaces, e.g., silica and copper, were also measured by AFM (MFP-3D, Asylum research, Goleta, CA) in DI water and ambient conditions, respectively, at room temperature. […] Cantilever spring constants were measured for each force run. […]

SMILES: C[N+](C)(CCCc1ccccc1)CCOP(=O)([O-])OCCCc1ccc(O)c(O)c1 [Z-Cat-Ben]
- interfacial energy Wad between silica bead and SAM [1]: ~0.07 mJ/m^2

SMILES: CN(C)CCOP(=O)(O)OCCCc1ccc(O)c(O)c1 [Z-Cat-C10]
- three point bending peel strength [2]: 20.5 N cm^−1
- critical aggregation concentration (CAC), rank [3]: lowest CAC among the homologs
- load held by lap joint ([4]; dry ambient conditions (Z-Cat-C10 joint prepared in aqueous periodate)): ≤ 1.1 kg
- load held by lap joint ([4]; prepared in 1 M periodate, after 12 h ambient drying): 11 N
- load held by lap joint ([4]; prepared in DI water): 1 N
- load held by lap joint ([4]; underwater, prepared in artificial seawater or periodate solution): up to 3 N
- adhesion Wad after air-drying ([5]; air-dried ~5 min): ~4 mJ m^−2
- wet work of adhesion Wad ([5]; underwater): ~0.1 mJ m^−2
